Assay [1] relates to L4X variant (A156/157C) (RNA, riboswitch, internal amino modifier (N) for Cy5 between 25 and 26 of strand 2; strand 3 is a DNA tether) GCGGUGAAGAUAGAGGUGCGAACUUCAAGAGUAUGCCUUUGGAGAAAGAUGGAUUCUGUGAAAAAGGCUGAAAGGGGAGCGUCGCCGAAGCAAAUAAAACCCCAUCGGUAUUAUUUGCUGGCCGUGCAUUGCCUAAAUGUAAGGCUGUCAAGAAGCAUCGUUCAAGCGUUUUUUAUGCUUGGAAGAUAAGAA/CCGAUGCUUCUUGGAGGGCUAUCUUCACC
Kind of assay: smFRET histograms. To be noted: ligand-bound FRET state not formed even at high Mg2+ or lysine.

Assay [2] concerns wild-type lysC aptamer (three-strand smFRET construct LMS/1-5V2/DNA-bi) (RNA, riboswitch, internal amino modifier (N) for Cy5 between 25 and 26 of strand 2; strand 3 is a DNA tether) GCGGUGAAGAUAGAGGUGCGAACUUCAAGAGUAUGCCUUUGGAGAAAGAUGGAUUCUGUGAAAAAGGCUGAAAGGGGAGCGUCGCCGAAGCAAAUAAAACCCCAUCGGUAUUAUUUGCUGGCCGUGCAUUGAAUAAAUGUAAGGCUGUCAAGAAGCAUCGUUCAAGCGUUUUUUAUGCUUGGAAGAUAAGAA/CCGAUGCUUCUUGGAGGGCUAUCUUCACC
Briefly: smFRET kinetics, KD,fold x KD,bind. To be noted: 100 mM K+, 2 mM Mg2+; 50 mM Tris pH 7.8; apparent.

For assay [3] the test system is unchanged. Kind of assay: smFRET histograms. To be noted: Na+ in place of K+; ligand-bound FRET state not formed efficiently.
For assay [4] the test system is unchanged. Briefly: smFRET histograms, global Hill fit of state occupancies. To be noted: 50 mM Tris pH 7.8.
For assay [5], the system named is L2X variant (G72C-G76C) (RNA, riboswitch, internal amino modifier (N) for Cy5 between 25 and 26 of strand 2; strand 3 is a DNA tether) GCGGUGAAGAUAGAGGUGCGAACUUCAAGAGUAUGCCUUUGGAGAAACUACCAUUCUGUGAAAAAGGCUGAAAGGGGAGCGUCGCCGAAGCAAAUAAAACCCCAUCGGUAUUAUUUGCUGGCCGUGCAUUGAAUAAAUGUAAGGCUGUCAAGAAGCAUCGUUCAAGCGUUUUUUAUGCUUGGAAGAUAAGAA/CCGAUGCUUCUUGGAGGGCUAUCUUCACC
Kind of assay: smFRET histograms. To be noted: ligand-bound FRET state not formed even at high Mg2+ or lysine.

The subject of assay [6] is BPX variant (G39C) (RNA, riboswitch, internal amino modifier (N) for Cy5 between 25 and 26 of strand 2; strand 3 is a DNA tether) GCGGUGAAGAUAGACGUGCGAACUUCAAGAGUAUGCCUUUGGAGAAAGAUGGAUUCUGUGAAAAAGGCUGAAAGGGGAGCGUCGCCGAAGCAAAUAAAACCCCAUCGGUAUUAUUUGCUGGCCGUGCAUUGAAUAAAUGUAAGGCUGUCAAGAAGCAUCGUUCAAGCGUUUUUUAUGCUUGGAAGAUAAGAA/CCGAUGCUUCUUGGAGGGCUAUCUUCACC
Kind of assay: smFRET histograms. To be noted: ligand-bound FRET state not formed even at high Mg2+ or lysine.

As usually defined, the KD is the constant that tells how readily two partners part at equilibrium. A lower KD goes with tighter binding.

Take `NCCCC[C@H](N)C(=O)O`: the binding result is “no” in assay [1], “weak” in assay [3], “no” in assay [5] and “no” in assay [6]. Moreover, the “KD, app” value in assay [2] worked out at 11 ± 7 µM. The KD in assay [4] (100 mM K+, 2 mM Mg2+, Figure 4 legend prints 4.5 ± 1 μM) is 3 ± 1 µM; in assay [4] (no K+, 10 mM Mg2+, Hill coefficient 1.1 ± 0.2) it was 850 ± 35 µM.

The record behind these values is paper PMC6614840 (2019).
